Columns and labels:
[1] = tested on: mouse model of BLM-induced lung injury; experiment: Histopathological evaluation of lung sections, H&E staining; assay type: in vivo; conditions: Effect example 4; mice; S15 30, 60, 90 mg/kg, Nintedanib 30 mg/kg, oral qd 12 days
Experimental: Experimental objective: This group of experiments aimed to investigate the therapeutic potential of the compound S15 in acute lung injury and inflammation induced by bleomycin (BLM).
Experimental grouping (8 mice per group):
Model group (BLM): the mice received BLM (1.7 U/kg) via intratracheal instillation;
Compound S15 group (S15): this group was divided into three dose groups, namely 30, 60 and 90 mg/kg;
Positive control group (Nintedanib): Nintedanib administration group;
Negative control group (Control): only saline was used.
1) Material acquisition: The fresh tissue was fixed in 4% paraformaldehyde for more than 24 hours. The tissue was removed from the fixative solution and trim the tissue at the target site. The trimmed tissue was marked and placed in the dehydration box for later use.
2) Dehydration: The dehydration box was put in the dehydrator and different concentration gradients of ethanol was used sequentially for dehydration. 75% ethanol (4 hours), 85% ethanol (2 hours), 90% ethanol (2 hours), 95% ethanol (1 hour), absolute ethanol I (30 minutes), absolute ethanol II (30 minutes), alcohol benzene (5-10 minutes), xylene I (5-10 minutes), xylene II (5-10 minutes), wax I (1 hour), wax II (1 hour), wax III (1 hour).
3) Embedment: The wax melted at high temperature was put into the embedding frame; before the wax was cooled and solidified, the tissue was taken out of the dehydration box, put into the embedding frame according to the requirements of the embedding surface, marked and cooled at −20° C. After completely solidified, the wax block was removed from the embedding frame and trimmed.
4) Section: The trimmed wax block was put on a paraffin microtome for sectioning. The section thickness was about 4 μm. The sections were floated on warm water at 40° C. of the flotation workstation and flatten. A glass slide was used to lift the tissue from the warm water, and put into a 60° C. oven for dryness. After the water was dried and the wax melted, the glass slide was taken out and stored at ambient temperature for later use. […]

DDR2 = experiment: Phosphorylation level of DDR2 (Western Blot); assay type: cell-based, human; conditions: MRC-5, TGF-β1 treatment
Experimental: 1) Preparation of cell protein samples: the cell culture liquid was discarded, wash was performed once with PBS, and samples were collected by adding 1×SDS-Loading. after the samples were collected, they were placed in a metal bath at 100° C., and the samples were boiled for 10 minutes, and then the samples were stored at 4° C. for waiting for subsequent test.
2) Gel preparation and sample loading: according to the molecular weight of the detected protein, different concentrations of separation gel were selected. after filling the 1× electrophoresis buffer, an equal volume of protein sample 4 μl and protein marker were added on the far left to right in sequence.
When the sample was in the concentrated gel, the voltage was set to 80 V; when the sample was electrophoresed to the separation gel, the voltage was increased to 120 V until the bromophenol blue was electrophoresed to reach the bottom of the gel, and the electrophoresis ended. […]
8) Secondary antibodies: the film with the primary antibodies was rewarmed and incubated for about half an hour, and then the primary antibodies were recovered and the film was washed quickly with TBST solution 3 times, 10 minutes each time. […] The dilution ratio of the secondary antibody dedicated for DDR2 was 1:5000; The dilution ratio for the rest of the secondary antibodies were 1:8000, ready for use. […]

O=C(Nc1cccc(C(F)(F)F)c1)c1ccc(C2CC2)c(-c2ccc3nc(Nc4cnn(C5CC5)c4)ncc3c2)c1 [Compound S15, 4-cyclopropyl-3-(2-((1-cyclopropyl-1H-pyrazol-4-yl)amino)quinazolin-6-yl)-N-(3-(trifluoromethyl)phenyl)benzamide]
BLM-induced lung injury, H&E staining [1]: improved significantly
phosphorylation level of DDR2 (DDR2): effectively inhibit the phosphorylation level of DDR2

Reference: US11655239B2 (SHANGHAI INSTITUTE OF MATERIAL MEDICA, CHINESE ACADEMY OF …, priority 2019, dated 2023)
